# Results published in ChEMBL document CHEMBL1201862, “PubChem BioAssay data set” (2004).
# Activity calls are given as the source filed them.
# What was measured:
# [1] = test system: HeLa; test: HeLa cell cytotoxicity, dose response, cytotoxicity control for MITF activator project, CellTiter-Glo luminescence, cherry-pick samples (AID 540259); format: functional, cell-based; settings: Homo sapiens
# [2] = molecular target: Heat shock protein HSP 90-alpha (Homo sapiens, UniProt P07900); format: functional, organism-based
# [3] = molecular target: Induced myeloid leukemia cell differentiation protein Mcl-1 (Homo sapiens, UniProt Q07820); format: functional
# [4] = molecular target: T1, Microphthalmia-associated transcription factor (Homo sapiens, UniProt O75030); test: TRPM1 promoter luciferase signal decrease, dose response, MITF inhibitor project, cell-based, SK-MEL-5, cherry-picked, set 3 (AID 493073); format: functional
# T1 sequence (O75030 whole entry): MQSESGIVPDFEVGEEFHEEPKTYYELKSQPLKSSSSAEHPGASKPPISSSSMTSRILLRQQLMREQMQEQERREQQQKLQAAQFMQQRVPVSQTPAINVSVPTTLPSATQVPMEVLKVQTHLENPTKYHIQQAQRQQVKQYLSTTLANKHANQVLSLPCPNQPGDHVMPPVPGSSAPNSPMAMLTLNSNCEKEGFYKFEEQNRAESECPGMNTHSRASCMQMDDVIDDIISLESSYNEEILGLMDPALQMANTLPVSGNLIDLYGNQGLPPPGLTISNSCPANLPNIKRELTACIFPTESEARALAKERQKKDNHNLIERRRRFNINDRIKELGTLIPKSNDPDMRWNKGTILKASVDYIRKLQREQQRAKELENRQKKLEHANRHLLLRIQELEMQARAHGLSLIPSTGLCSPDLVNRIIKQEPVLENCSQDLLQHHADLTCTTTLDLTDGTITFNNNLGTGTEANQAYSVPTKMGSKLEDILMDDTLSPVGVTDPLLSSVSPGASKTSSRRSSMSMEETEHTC
# [5] = test system: HEK293; test: cells; settings: Homo sapiens
# [6] = molecular target: T2, Protein RecA (Mycobacterium tuberculosis, UniProt P9WHJ3); test: Fluorescence Cell-Free Homogeneous Dose Retest to Identify Inhibitors of RecA-Intein Splicing Activity. [Related pubchem assays (depositor defined):AID2097, AID2223, AID489010, AID492950]; format: functional
# T2 sequence (P9WHJ3 whole entry): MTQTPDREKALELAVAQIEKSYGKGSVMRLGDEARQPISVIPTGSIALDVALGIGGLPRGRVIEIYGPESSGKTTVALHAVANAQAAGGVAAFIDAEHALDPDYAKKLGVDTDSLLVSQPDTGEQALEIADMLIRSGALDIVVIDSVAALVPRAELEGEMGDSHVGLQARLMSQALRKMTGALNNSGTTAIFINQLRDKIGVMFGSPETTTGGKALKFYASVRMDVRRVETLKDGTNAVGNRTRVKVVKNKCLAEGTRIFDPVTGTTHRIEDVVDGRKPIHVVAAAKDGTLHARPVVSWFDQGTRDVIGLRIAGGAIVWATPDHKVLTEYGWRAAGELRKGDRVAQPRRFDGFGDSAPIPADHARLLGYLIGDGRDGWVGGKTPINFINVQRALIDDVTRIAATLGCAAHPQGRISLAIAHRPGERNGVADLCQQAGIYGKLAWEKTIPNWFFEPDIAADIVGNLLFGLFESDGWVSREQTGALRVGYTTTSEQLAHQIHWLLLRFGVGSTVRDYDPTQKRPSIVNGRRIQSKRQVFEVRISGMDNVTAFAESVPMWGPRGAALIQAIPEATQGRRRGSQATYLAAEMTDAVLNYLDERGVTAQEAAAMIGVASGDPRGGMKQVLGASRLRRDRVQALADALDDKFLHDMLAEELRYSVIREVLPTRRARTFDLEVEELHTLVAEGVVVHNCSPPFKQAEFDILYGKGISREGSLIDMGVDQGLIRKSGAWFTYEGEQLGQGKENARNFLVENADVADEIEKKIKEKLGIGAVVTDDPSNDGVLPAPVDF
# [7] = HepG2 cell cytotoxicity, dose response, cytotoxicity control for non-replicating M. tuberculosis project (AID 489018); format: functional; settings: Mycobacterium tuberculosis
# [8] = cells; format: functional
# [9] = microbe, parasite or virus in culture; format: functional; settings: Mycobacterium tuberculosis
# [10] = molecular target: T3, Replicative DNA helicase DnaB (Mycobacterium tuberculosis, UniProt P9WMR3); test: DnaB intein splicing inhibitors, dose response, biochemical, cell-free fluorescence (AID 449749); format: functional
# T3 sequence (P9WMR3 whole entry): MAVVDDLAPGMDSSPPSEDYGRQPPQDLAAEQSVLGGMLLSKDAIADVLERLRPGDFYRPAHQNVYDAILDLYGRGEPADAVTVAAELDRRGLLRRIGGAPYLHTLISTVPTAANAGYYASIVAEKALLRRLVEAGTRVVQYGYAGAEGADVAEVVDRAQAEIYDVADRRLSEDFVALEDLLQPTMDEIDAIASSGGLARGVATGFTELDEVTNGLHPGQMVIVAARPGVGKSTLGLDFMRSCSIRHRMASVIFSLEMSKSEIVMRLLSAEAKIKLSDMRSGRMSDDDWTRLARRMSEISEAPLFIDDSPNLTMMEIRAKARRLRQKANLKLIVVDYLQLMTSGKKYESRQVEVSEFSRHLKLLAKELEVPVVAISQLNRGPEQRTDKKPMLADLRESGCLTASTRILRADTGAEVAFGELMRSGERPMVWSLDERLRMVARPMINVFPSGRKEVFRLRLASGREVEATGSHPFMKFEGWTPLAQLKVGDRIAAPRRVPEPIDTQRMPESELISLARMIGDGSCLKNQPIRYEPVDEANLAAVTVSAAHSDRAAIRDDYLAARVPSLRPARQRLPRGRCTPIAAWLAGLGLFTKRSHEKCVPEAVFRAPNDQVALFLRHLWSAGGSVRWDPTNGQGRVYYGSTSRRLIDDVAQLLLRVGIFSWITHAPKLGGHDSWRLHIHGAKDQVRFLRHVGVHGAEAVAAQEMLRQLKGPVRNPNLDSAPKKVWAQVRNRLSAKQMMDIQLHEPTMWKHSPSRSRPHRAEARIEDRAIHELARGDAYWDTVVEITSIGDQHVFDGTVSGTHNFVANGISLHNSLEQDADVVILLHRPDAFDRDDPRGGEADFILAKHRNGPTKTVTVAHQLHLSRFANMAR
# [11] = test system: HEK293; test: cells; settings: Homo sapiens; remark: listed apart in the source
# [12] = THP-1 cell cytotoxicity, dose response, cytotoxicity control for non-replicating M. tuberculosis project (AID 489025); format: functional
# [13] = molecular target: T4, Oxysterols receptor LXR-beta (Homo sapiens, UniProt P55055); format: functional, cell-based;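 also: agonist activity at LXR measured by a cell-based luminescence readout across a dose range, run as a counterscreen for daf-12 agonists; HEK293 cells with Gal4-LXR fusion and GAL4-driven luciferase reporter; potency for activation of Gal4-LXR reporter so compounds are agonists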
# T4 sequence (P55055 whole entry): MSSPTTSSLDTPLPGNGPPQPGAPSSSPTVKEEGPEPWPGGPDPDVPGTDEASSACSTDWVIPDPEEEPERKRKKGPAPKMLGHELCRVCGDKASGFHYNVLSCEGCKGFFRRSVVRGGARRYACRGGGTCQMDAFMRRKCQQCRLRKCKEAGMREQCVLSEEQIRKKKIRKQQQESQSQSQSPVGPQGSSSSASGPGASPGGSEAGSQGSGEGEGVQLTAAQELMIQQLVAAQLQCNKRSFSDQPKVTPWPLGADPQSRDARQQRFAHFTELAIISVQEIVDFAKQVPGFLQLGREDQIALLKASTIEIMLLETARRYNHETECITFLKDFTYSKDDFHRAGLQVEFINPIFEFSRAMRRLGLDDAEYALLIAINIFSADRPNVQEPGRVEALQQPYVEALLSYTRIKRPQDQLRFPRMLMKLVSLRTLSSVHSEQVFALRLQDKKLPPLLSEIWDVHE
# [14] = molecular target: T5, Type-1 angiotensin II receptor (Homo sapiens, UniProt P30556); test: AT1 receptor antagonists, dose response, selectivity assay for APJ receptor antagonist project, cell-based, uHTS hits (AID 463214); format: functional;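 also: antagonist potency against angiotensin II stimulated AT1 response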
# T5 sequence (P30556 whole entry): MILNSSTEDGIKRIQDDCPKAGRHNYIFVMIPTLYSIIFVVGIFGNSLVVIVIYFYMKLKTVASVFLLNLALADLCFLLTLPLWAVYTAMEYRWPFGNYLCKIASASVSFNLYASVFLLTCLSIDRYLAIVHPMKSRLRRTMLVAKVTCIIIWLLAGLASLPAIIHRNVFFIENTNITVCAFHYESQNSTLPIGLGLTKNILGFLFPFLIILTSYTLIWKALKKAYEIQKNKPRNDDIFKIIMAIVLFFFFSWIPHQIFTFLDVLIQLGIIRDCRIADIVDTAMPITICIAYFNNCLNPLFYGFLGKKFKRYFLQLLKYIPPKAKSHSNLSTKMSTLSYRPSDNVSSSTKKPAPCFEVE
# [15] = molecular target: Beta-galactosidase (Escherichia coli, UniProt Q8VNN2); test: PubChem AID 485352; format: functional
# [16] = test system: Escherichia coli; test: microbe, parasite or virus in culture
# Chain of Induced myeloid leukemia cell differentiation protein Mcl-1 (Q07820 whole entry): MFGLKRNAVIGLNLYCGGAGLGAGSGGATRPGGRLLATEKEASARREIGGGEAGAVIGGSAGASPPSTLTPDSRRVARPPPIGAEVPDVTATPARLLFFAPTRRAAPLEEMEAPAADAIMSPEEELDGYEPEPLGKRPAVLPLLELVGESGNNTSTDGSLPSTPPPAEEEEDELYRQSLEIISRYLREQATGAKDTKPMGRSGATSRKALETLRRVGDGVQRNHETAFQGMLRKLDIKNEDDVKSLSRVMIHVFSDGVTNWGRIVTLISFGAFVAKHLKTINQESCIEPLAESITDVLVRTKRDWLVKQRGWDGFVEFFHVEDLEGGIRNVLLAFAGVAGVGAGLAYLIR
# Chain of Beta-galactosidase (Q8VNN2 whole entry): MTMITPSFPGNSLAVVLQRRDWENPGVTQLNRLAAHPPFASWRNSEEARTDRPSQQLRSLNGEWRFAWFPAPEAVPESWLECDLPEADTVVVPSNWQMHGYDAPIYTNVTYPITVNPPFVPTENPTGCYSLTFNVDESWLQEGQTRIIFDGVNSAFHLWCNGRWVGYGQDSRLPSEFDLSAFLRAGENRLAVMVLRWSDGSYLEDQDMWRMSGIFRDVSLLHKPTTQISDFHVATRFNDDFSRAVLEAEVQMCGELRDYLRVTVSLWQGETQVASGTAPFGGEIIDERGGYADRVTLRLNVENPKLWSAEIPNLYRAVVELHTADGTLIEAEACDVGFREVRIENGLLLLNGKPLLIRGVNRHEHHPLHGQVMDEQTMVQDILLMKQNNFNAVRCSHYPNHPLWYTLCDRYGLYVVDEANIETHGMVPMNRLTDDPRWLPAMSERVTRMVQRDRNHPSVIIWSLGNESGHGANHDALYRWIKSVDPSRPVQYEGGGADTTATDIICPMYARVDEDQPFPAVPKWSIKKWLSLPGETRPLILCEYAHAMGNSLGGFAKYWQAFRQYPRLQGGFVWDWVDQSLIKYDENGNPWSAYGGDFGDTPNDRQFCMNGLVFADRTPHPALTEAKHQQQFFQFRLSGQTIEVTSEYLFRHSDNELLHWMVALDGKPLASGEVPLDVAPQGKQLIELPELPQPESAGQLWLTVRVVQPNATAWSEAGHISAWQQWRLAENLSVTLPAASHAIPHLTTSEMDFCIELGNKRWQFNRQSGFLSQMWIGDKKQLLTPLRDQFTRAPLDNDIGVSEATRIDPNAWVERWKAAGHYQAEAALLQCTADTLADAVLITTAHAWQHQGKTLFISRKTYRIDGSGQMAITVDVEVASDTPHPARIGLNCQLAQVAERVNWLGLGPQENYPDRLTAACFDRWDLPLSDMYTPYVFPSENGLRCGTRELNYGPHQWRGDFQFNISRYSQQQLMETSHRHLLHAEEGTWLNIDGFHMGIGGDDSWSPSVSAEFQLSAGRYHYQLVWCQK
smiles,measurement,setting,value
COc1ccc2[nH]c(-c3ccccc3)cc2c1,AC50,[1],55.1 µM (active)
O=C1Nc2ccc(Br)cc2/C1=C/C(=O)c1ccc2c(c1)OCO2,AC50,[2],2.17 µM (active)
same,IC50,[3],1.29 µM (active)
same,AC50,[4],25.5 µM (active)
same,EC50,[5],> 59.6 µM (inactive)
same,EC50,[6],1.46 µM (active)
same,CC50,[7],18.9 µM (active)
same,IC50,[8],15.2 µM (active)
same,CC50,[9],32.2 µM (active)
same,AC50,[10],36.3 µM (active)
same,EC50,[11],> 59.6 µM (inactive)
same,CC50,[12],11.9 µM (active)
COc1cccc(/C=C/c2ccc3cccc(O)c3n2)c1,AC50,[2],24.4 µM (active)
same,EC50,[13],> 67.5 µM (inactive)
same,EC50,[5],> 0.0091 µM (active)
same,IC50,[14],15.1 µM (active)
same,EC50,[15],> 40 µM (inactive)
same,EC50,[11],> 59.7 µM (inactive)
Cc1ccc(CNC(=O)C2CCCN2C(=O)Nc2ccccc2)cc1 (configuration not stated),AC50,[16],33.2 µM (active)
CC(C(=O)NC1CCCC1)N1CCN(S(=O)(=O)c2ccc(C(C)(C)C)cc2)CC1 (configuration not stated),AC50,[16],70.4 µM (active)
COc1ccc(OC2OC3COC(c4ccco4)OC3C(O)C2NC(C)=O)cc1 (configuration not stated),AC50,[16],32.1 µM (active)
CN(C1=NC(=O)/C(=C2\C(=O)Nc3ccccc32)S1)c1ccc(O)cc1,AC50,[1],45.4 µM (active)
